Like-named read-outs stand apart in the source and are kept apart here.
Key:
Format in all cases: biochemical
PI3Kβ = molecular target: T1, PI3Kβ (Homo sapiens, UniProt P42338); assay: TR-FRET enzymatic activity assay, PI3Kβ
T1 construct: made in house
Outline: (§1)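 Compounds were profiled per isoform in a biochemical kinase reaction, with activity detected by time-resolved fluorescence resonance energy transfer.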

PI3Kδ = molecular target: T2, PI3Kδ (Homo sapiens, UniProt O00329); assay: TR-FRET enzymatic activity assay, PI3Kδ
T2 construct: made in house
Outline: as §1

PI3Kγ = molecular target: T3, PI3Kγ (Homo sapiens, UniProt P48736); assay: TR-FRET enzymatic activity assay, PI3Kγ
T3 construct: made in house
Outline: as §1

[1] = recombinant heterodimeric PI3Kβ 25-50 pM, 2× Km ATP, 30 minutes at 25°C
[2] = recombinant heterodimeric PI3Kδ 25-50 pM, 2× Km ATP, 30 minutes at 25°C
[3] = recombinant heterodimeric PI3Kγ 2 nM, 2× Km ATP, 30 minutes at 25°C

T1 sequence (P42338 whole entry): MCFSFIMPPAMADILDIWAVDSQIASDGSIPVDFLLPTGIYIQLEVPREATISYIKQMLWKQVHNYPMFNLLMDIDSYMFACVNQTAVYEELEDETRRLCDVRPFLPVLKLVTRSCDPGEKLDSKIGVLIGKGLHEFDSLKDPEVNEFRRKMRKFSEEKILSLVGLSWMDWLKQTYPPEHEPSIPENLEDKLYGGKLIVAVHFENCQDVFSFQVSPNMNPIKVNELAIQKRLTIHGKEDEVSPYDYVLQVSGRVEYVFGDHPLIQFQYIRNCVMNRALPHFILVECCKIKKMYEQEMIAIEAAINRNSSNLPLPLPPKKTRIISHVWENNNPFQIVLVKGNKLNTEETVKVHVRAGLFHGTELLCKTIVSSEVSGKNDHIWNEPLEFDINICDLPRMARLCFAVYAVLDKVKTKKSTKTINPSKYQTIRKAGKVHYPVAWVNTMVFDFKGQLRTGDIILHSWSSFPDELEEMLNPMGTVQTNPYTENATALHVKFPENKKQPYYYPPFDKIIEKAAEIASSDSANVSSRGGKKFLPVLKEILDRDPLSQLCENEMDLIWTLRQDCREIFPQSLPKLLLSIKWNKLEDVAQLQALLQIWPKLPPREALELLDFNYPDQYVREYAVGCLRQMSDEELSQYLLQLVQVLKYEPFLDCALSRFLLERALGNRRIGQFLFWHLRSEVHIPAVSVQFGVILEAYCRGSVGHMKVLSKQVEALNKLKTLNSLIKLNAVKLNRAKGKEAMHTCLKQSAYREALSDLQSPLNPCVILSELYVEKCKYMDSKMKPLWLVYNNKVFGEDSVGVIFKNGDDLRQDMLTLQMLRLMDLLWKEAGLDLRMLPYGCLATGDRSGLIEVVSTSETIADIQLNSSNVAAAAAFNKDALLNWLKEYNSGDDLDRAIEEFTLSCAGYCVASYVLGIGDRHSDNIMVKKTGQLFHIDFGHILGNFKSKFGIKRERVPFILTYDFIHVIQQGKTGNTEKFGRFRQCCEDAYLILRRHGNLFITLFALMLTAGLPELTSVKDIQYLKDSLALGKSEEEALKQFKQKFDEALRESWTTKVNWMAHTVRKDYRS
T1 sequence (P27986 whole entry partner): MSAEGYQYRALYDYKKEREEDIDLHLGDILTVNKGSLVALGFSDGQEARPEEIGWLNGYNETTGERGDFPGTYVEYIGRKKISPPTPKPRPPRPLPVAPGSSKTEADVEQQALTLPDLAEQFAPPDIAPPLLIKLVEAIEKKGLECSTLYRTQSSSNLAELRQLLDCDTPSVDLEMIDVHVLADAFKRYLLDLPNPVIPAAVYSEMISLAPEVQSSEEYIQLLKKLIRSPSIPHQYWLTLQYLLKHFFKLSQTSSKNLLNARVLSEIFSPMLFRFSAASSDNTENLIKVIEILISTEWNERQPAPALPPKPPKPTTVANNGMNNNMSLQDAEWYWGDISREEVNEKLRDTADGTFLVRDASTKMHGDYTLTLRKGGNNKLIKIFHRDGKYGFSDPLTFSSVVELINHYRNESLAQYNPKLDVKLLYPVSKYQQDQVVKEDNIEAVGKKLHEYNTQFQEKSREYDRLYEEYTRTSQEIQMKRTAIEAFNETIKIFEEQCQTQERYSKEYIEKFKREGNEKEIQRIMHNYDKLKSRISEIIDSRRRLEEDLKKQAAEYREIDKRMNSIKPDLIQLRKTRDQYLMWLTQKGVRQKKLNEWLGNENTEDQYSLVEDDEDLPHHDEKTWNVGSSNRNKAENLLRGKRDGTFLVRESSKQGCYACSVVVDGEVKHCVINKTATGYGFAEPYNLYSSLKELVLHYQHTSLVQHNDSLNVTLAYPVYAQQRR
T2 sequence (O00329 whole entry): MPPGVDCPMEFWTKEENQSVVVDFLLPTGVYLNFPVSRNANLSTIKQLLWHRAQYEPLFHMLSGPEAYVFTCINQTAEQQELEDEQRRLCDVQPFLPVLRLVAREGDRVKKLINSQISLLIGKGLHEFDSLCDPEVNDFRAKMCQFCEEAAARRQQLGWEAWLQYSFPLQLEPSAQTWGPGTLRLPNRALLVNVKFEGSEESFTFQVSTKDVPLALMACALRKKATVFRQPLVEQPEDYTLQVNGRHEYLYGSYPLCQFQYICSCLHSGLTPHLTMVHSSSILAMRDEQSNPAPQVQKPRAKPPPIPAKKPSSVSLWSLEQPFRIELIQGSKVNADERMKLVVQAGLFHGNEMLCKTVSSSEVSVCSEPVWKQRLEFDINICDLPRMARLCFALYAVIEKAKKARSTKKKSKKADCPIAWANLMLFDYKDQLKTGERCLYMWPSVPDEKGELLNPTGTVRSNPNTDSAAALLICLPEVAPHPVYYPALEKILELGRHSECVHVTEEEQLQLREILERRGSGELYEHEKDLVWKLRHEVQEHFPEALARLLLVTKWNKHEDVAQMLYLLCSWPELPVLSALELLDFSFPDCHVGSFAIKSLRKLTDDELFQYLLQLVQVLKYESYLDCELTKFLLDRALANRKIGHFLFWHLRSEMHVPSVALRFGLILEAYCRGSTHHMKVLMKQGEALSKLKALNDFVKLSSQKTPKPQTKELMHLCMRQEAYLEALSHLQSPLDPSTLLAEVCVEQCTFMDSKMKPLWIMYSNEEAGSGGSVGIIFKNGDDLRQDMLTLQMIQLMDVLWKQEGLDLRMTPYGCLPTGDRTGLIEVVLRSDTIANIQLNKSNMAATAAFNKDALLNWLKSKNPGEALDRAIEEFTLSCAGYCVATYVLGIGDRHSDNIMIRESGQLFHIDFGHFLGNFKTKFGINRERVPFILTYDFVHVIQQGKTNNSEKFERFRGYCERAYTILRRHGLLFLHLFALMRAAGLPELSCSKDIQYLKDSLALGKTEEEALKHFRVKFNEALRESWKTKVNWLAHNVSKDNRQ
T2 sequence (P27986 whole entry partner): as the sequence (P27986 whole entry partner) above
T3 sequence (P48736 whole entry): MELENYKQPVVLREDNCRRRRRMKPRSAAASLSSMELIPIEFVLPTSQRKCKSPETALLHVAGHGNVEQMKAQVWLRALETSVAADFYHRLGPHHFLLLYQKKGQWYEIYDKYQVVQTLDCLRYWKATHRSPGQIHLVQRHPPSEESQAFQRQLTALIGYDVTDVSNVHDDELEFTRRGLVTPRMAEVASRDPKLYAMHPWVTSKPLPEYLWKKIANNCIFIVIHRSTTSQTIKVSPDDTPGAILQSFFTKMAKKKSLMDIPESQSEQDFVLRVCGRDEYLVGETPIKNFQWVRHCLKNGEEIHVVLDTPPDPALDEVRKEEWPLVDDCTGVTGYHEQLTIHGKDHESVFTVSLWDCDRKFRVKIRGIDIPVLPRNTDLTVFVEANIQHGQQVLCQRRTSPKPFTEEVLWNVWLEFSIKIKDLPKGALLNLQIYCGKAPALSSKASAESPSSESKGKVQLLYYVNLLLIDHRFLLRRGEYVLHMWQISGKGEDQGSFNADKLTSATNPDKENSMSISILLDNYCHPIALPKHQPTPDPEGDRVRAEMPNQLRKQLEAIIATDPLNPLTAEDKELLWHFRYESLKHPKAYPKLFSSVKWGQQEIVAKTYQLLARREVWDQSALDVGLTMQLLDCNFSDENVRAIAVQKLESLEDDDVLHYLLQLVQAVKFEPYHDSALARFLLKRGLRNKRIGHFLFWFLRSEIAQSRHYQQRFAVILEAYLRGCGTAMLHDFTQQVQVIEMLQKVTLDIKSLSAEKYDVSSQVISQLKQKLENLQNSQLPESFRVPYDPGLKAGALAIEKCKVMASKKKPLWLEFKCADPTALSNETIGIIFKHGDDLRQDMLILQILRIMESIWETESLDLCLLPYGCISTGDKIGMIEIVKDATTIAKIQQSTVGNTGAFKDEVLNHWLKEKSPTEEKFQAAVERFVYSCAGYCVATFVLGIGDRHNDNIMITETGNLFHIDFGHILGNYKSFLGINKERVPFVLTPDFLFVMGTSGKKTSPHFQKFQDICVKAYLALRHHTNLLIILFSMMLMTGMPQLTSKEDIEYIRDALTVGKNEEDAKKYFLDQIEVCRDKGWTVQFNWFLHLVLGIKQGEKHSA
T3 sequence (Q8WYR1 whole entry partner): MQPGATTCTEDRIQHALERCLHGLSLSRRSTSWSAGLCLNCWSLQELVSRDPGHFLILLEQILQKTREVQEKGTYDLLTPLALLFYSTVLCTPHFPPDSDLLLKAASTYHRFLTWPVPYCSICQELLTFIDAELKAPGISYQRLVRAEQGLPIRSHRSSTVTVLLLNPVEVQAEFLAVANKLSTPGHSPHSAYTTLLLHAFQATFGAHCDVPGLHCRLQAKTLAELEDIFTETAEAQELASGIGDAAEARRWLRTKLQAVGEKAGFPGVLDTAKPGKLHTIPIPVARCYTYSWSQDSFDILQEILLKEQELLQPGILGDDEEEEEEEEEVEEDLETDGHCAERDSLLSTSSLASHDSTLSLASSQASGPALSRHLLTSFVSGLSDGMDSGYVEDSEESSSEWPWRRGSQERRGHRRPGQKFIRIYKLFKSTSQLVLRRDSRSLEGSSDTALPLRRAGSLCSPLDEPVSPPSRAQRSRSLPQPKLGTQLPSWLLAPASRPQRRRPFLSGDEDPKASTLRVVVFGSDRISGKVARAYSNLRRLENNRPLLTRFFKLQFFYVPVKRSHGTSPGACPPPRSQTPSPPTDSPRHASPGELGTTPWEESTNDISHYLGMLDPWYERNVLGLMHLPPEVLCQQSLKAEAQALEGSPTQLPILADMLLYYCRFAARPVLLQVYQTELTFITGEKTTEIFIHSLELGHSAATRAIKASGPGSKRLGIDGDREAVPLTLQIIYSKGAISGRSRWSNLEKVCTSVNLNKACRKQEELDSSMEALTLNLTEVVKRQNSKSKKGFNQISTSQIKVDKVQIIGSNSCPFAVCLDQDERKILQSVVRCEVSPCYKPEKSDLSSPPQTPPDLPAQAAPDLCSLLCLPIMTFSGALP

Row | SMILES | IC50 (PI3Kβ; [1]) | IC50 (PI3Kδ; [2]) | IC50 (PI3Kγ; [3]) | IC50 (PI3Kβ) | IC50 (PI3Kδ) | IC50 (PI3Kγ)
1 | C[C@H](Nc1nc(N)nc(N)c1C#N)c1nc2cccc(Cl)c2c(=O)n1C1CNC1 [Compound 29, (S)-2,4-diamino-6-((1-(3-(azetidin-3-yl)-5-chloro-4-oxo-3,4-dihydroquinazolin-2-yl)ethyl)amino)pyrimidine-5-carbonitrile] | 91 nM | 31 nM | 3100 nM | – | – | –
2 | O=c1c2c(F)ccc(F)c2nc([C@@H](Nc2ncnn3ccnc23)C2CC2)n1N1CCNCC1 [Compound 41, (S)-2-(cyclopropyl(imidazo[2,1-f][1,2,4]triazin-4-ylamino)methyl)-5,8-difluoro-3 - (piperazin-1-yl)quinazolin-4(3H)-one] | 210 nM | 24 nM | > 10000 nM | – | – | –
3 | C[C@H](Nc1nc(N)nc(N)c1C#N)c1nc2cccc(Cl)c2c(=O)n1N1CCN(CC(F)F)CC1 [Compound 111, (S)-2,4-diamino-6-((1-(5-chloro-3-(4-(2,2-difluoroethyl)piperazin-1-yl)-4-oxo-3,4-dihydroquinazolin-2-yl)ethyl)amino)pyrimidine-5-carbonitrile] | 530 nM | 24 nM | 730 nM | – | – | –
4 | C[C@H](Nc1nc(N)nc(N)c1C#N)c1nc2cccc(Cl)c2c(=O)n1[C@H]1CCCNCC1 [Compound 8, 2,4-diamino-6-(((S)-1-(3-((S)-azepan-4-yl)-5-chloro-4-oxo-3,4-dihydroquinazolin-2-yl)ethyl)amino)pyrimidine-5-carbonitrile] | 62 nM | 2 nM | > 10000 nM | – | – | –
5 | C[C@H](Nc1ncnc(N)c1C#Cc1ccc(F)cn1)c1nc2cccc(Cl)c2c(=O)n1N1CCNCC1 [Compound 58, (S)-2-(1-((6-amino-5-((5-fluoropyridin-2-yl)ethynyl)pyrimidin-4-yl)amino)ethyl)-5-chloro-3-(piperazin-1-yl)quinazolin-4(3H)-one] | 10 nM | 2 nM | > 10000 nM | – | – | –
6 | O=c1c2c(Cl)cccc2nc([C@@H](Nc2ncnc3scnc23)C2CC2)n1N1CCNCC1 [Compound 78, (S)-5-chloro-2-(cyclopropyl(thiazolo[5,4-d]pyrimidin-7-ylamino)methyl)-3-(piperazin-1-yl)quinazolin-4(3H)-one] | 18 nM | 2 nM | > 10000 nM | – | – | –
7 | C[C@H](Nc1nc(N)nc(N)c1C#N)c1nc2cccc(Cl)c2c(=O)n1[C@H]1CCOC1 [Compound 136, 2,4-diamino-6-(((S)-1-(5-chloro-4-oxo-3-((S)-tetrahydrofuran-3-yl)-3,4-dihydroquinazolin-2-yl)ethyl)amino)pyrimidine-5-carbonitrile] | 192 nM | 2 nM | 259 nM | – | – | –
8 | C[C@H](Nc1ncnc2[nH]cnc12)c1nc2cccc(Cl)c2c(=O)n1C1CCN(C)CC1 [Compound 120, (S)-2-(1-((9H-purin-6-yl)amino)ethyl)-5-chloro-3-(1-methylpiperidin-4-yl)quinazolin-4(3H)-one] | 1200 nM | 14 nM | > 10000 nM | – | – | –
9 | C[C@H](Nc1ncnc(N)c1C#N)c1nc2cccc(Cl)c2c(=O)n1C1CCN(C2CCN(C)CC2)CC1 [Compound 134, (S)-4-amino-6-((1-(5-chloro-3-(1'-methyl-[1,4'-bipiperidin]-4-yl)-4-oxo-3,4-dihydroquinazolin-2-yl)ethyl)amino)pyrimidine-5-carbonitrile] | 2200 nM | 35 nM | > 10000 nM | – | – | –
10 | C[C@H](Nc1ncnc2scc(Cl)c12)c1nc2cccc(Cl)c2c(=O)n1N1CCNCC1 [Compound 35, (S)-5-chloro-2-(1-((5-chlorothieno[2,3-d]pyrimidin-4-yl)amino)ethyl)-3-(piperazin-1-yl)quinazolin-4(3H)-one] | 570 nM | 93 nM | > 10000 nM | – | – | –
11 | C[C@H](Nc1nc(N)nc(N)c1C#N)c1nc2cccc(Cl)c2c(=O)n1C1CCN(Cc2ccccc2)CC1 [Compound 101, (S)-2,4-diamino-6-((1-(3-(1-benzylpiperidin-4-yl)-5-chloro-4-oxo-3,4-dihydroquinazolin-2-yl)ethyl)amino)pyrimidine-5-carbonitrile] | 44 nM | 21 nM | 4200 nM | – | – | –
12 | N#Cc1c(N)nc(N)nc1N1CCC[C@@H]1c1nc2cccc(F)c2c(=O)n1N1CCN(Cc2ccccc2)CC1 (stereo in doubt) [Compound 124, (R)-2,4-diamino-6-(2-(3-(4-benzylpiperazin-1-yl)-5-fluoro-4-oxo-3,4-dihydroquinazolin-2-yl)pyrrolidin-1-yl)pyrimidine-5-carbonitrile] | 1300 nM | 390 nM | > 10000 nM | – | – | –
13 | C[C@H](Nc1ncnc(N)c1C#N)c1nc2cccc(Cl)c2c(=O)n1C1CCN(CC(F)(F)F)CC1 [Compound 103, (S)-4-amino-6-((1-(5-chloro-4-oxo-3-(1-(2,2,2-trifluoroethyl)piperidin-4-yl)-3,4-dihydroquinazolin-2-yl)ethyl)amino)pyrimidine-5-carbonitrile] | 2200 nM | 10 nM | > 10000 nM | – | – | –

Continued, values first:

Row | IC50 (PI3Kβ; [1]) | IC50 (PI3Kδ; [2]) | IC50 (PI3Kγ; [3]) | IC50 (PI3Kβ) | IC50 (PI3Kδ) | IC50 (PI3Kγ) | SMILES
14 | 450 nM | 6 nM | > 10000 nM | – | – | – | C[C@H](Nc1ncnc(N)c1C#N)c1nc2cccc(Cl)c2c(=O)n1N1CCC(N)CC1 [Compound 131, (S)-4-amino-6-((1-(3-(4-aminopiperidin-1-yl)-5-chloro-4-oxo-3,4-dihydroquinazolin-2-yl)ethyl)amino)pyrimidine-5-carbonitrile]
15 | 58 nM | 1 nM | 524 nM | – | – | – | N#Cc1c(N)nc(N)nc1N[C@H](c1nc2c(Cl)ccc(Cl)c2c(=O)n1C1CCC1)C1CC1 [Compound 138, (S)-2,4-diamino-6-((cyclopropyl(5,8-dichloro-3-cyclobutyl-4-oxo-3,4-dihydroquinazolin-2-yl)methyl)amino)pyrimidine-5-carbonitrile]
16 | 56 nM | 32 nM | 2900 nM | – | – | – | CC[C@H](Nc1nc(N)nc(N)c1C#N)c1nc2cccc(Cl)c2c(=O)n1N1CCN(Cc2ccccc2)CC1 [Compound 94, (S)-2,4-diamino-6-((1-(3-(4-benzylpiperazin-1-yl)-5-chloro-4-oxo-3,4-dihydroquinazolin-2-yl)propyl)amino)pyrimidine-5-carbonitrile]
17 | 9 nM | 2 nM | > 10000 nM | – | – | – | C[C@H](Nc1nc(N)nc(N)c1C#N)c1nc2cccc(Cl)c2c(=O)n1[C@@H]1CCCNCC1 [Compound 9, 2,4-diamino-6-(((S)-1-(3-((R)-azepan-4-yl)-5-chloro-4-oxo-3,4-dihydroquinazolin-2-yl)ethyl)amino)pyrimidine-5-carbonitrile]
18 | 14 nM | 3 nM | > 10000 nM | – | – | – | C[C@H](Nc1ncnc2scnc12)c1nc2cccc(Cl)c2c(=O)n1N1CCNCC1 [Compound 70, (S)-5-chloro-3-(piperazin-1-yl)-2-(1-(thiazolo[5,4-d]pyrimidin-7-ylamino)ethyl)quinazolin-4(3H)-one]
19 | – | – | – | 2 nM | 0.6 nM | 650 nM | N#Cc1c(N)nc(N)nc1N[C@H](c1nc2cccc(Cl)c2c(=O)n1C1[C@H]2CNC[C@@H]12)C1CC1 (stereo in doubt) [Compound 15, 4-(((1S)-(3-((1R,5S)-3-azabicyclo[3.1.0]hexan-6-yl)-5-chloro-4-oxo-3,4-dihydroquinazolin-2-yl)(cyclopropyl)methyl)amino)-2,6-diaminopyrimidine-5-carbonitrile]
20 | 1900 nM | 9 nM | > 10000 nM | – | – | – | C[C@H](Nc1ncnc(N)c1C#N)c1nc2cccc(Cl)c2c(=O)n1C1CCN(CC(F)F)CC1 [Compound 105, (S)-4-amino-6-((1-(5-chloro-3-(1-(2,2-difluoroethyl)piperidin-4-yl)-4-oxo-3,4-dihydroquinazolin-2-yl)ethyl)amino)pyrimidine-5-carbonitrile]
21 | 30 nM | 4 nM | > 10000 nM | – | – | – | O=c1c2c(Cl)cccc2nc([C@@H](Nc2ncnn3ccnc23)C2CC2)n1N1CCNCC1 [Compound 43, (S)-5-chloro-2-(cyclopropyl(imidazo[2,1-f][1,2,4]triazin-4-ylamino)methyl)-3-(piperazin-1-yl)quinazolin-4(3H)-one]
22 | 32 nM | 150 nM | > 10000 nM | – | – | – | C[C@H](NC(=O)c1nc(Cl)cnc1N)c1nc2cccc(Cl)c2c(=O)n1N1CCNCC1 [Compound 32, (S)-3-amino-6-chloro-N-(1-(5-chloro-4-oxo-3-(piperazin-1-yl)-3,4-dihydroquinazolin-2-yl)ethyl)pyrazine-2-carboxamide]
23 | 94 nM | 9 nM | > 10000 nM | – | – | – | C[C@H](Nc1ncnn2ccnc12)c1nc2cccc(Cl)c2c(=O)n1N1CCCNCC1 [Compound 64, (S)-5-chloro-3-(1,4-diazepan-1-yl)-2-(1-(imidazo[2,1-f][1,2,4]triazin-4-ylamino)ethyl)quinazolin-4(3H)-one]
24 | 1 nM | 3 nM | 2100 nM | – | – | – | CC[C@H](Nc1nc(N)nc(N)c1C#N)c1nc2cccc(Cl)c2c(=O)n1N1CCNCC1 [Compound 68, (S)-2,4-diamino-6-((1-(5-chloro-4-oxo-3-(piperazin-1-yl)-3,4-dihydroquinazolin-2-yl)propyl)amino)pyrimidine-5-carbonitrile]
25 | 660 nM | 56 nM | > 10000 nM | – | – | – | C[C@H](Nc1nc(N)nc(N)c1Cl)c1nc2cccc(Cl)c2c(=O)n1[C@H]1CCCNCC1 [Compound 12, 3-((S)-azepan-4-yl)-5-chloro-2-((S)-1-((2,6-diamino-5-chloropyrimidin-4-yl)amino)ethyl)quinazolin-4(3H)-one]
26 | 28 nM | 13 nM | > 10000 nM | – | – | – | N#Cc1c(N)nc(N)nc1N[C@H](c1nc2c(F)ccc(F)c2c(=O)n1N1CCNCC1)C1CC1 [Compound 127, (S)-2,4-diamino-6-((cyclopropyl(5,8-difluoro-4-oxo-3-(piperazin-1-yl)-3,4-dihydroquinazolin-2-yl)methyl)amino)pyrimidine-5-carbonitrile]

Reference: patent EP3154958B1, “PHOSPHATIDYLINOSITOL 3-KINASE INHIBITORS” (Gilead Sciences, Inc., priority 2014, dated 2015)
